Experimental data from US4006226A, “Anticonvulsant diphenylsilanes” (priority 1976, dated 1977).

What was measured:
[1] = test system: maximal electroshock; test: Modified maximal electroshock test (100 Hz, 0.1 sec., 150 volt) of hydrolyzable silanes, oral; assay type: in vivo, male Carworth mice; conditions: for ED50: Mus musculus, read-out: Maximal Electroshock ED50 (95% C.I.); for ED50 / Maximal Electroshock ED50 (95% C.I.): sesame oil; for anticonvulsant activity (in words): maximal electroshock
Method: (§1) The modified (100 Hz, 0.1 sec., 150 volt) maximal electroshock test was used to determine the anticonvulsant activity of several hydrolyzable silanes. Male Carworth mice were used as the test animal. All of the compounds were administered orally in a sesame oil carrier. […] The effective amount (ED50) for the compounds at three different time intervals after dosing was determined as previously described.

[2] = LD50, single dose in sesame oil, 14 days observation; parameters: species or system male Carworth mice; conditions: mouse, in vivo, po, dead after 14 days
Method: as §1
The LD50 of certain silanes was determined by administering a single dose of the silane in sesame oil to groups of the male mice.

[3] = test system: tonic extension of the hind limbs; test: Electroshock test (60 Hz A.C., 0.2 second, 50 milliamp), i.p. dosing; assay type: in vivo, mice (female Swiss Webster)
Method: The electroshock test procedure was used to determine anticonvulsant activity of diphenylsilanediol. Adult female mice (Swiss Webster strain) were utilized as test animals. […] Seizure protection was scored as inhibition of tonic extension. Groups of mice (six/group) were dosed interperitonially with varying amounts of diphenylsilanediol in a 0.5% methylcellulose solution in distilled water. The dosages ranged from 10 to 100 mg./kg. and the electroshock was applied 30 minutes after dosing.
(§2) (ED99) to be 30 minutes after dosing, the half time of the effect to be about four hours, with some measurable anticonvulsant activity being noted up to 10 hours. The toxicity (LD50) of this silane solution (as freshly prepared) in mice, administered i.p., was determined to be 2500 mg./kg.

[4] = Acute toxicity (LD50), i.p.; conditions: mouse, in vivo, ip, mice, freshly prepared solution
Method: as §2

[5] = test system: maximal electroshock; test: Modified maximal electroshock (100 Hz, 0.1 second, 150 volts), intravenous dosing; assay type: in vivo, mice
Method: (§3) Mice were also dosed with a similar solution of diphenylsilanediol but by intravenous administration. The ED50 was determined to be 10 mg./kg. with a 5 minute peak time by a modified maximal electroshock technique in which stimulus was delivered at 100 Hz for 0.1 second at 150 volts.

[6] = test system: maximal electroshock; test: Modified maximal electroshock, oral dosing via gastric intubation in sesame oil; assay type: in vivo, mice; conditions: Mus musculus
Method: as §3
Oral dosing of mice via gastric intubation with the diphenylsilanediol suspended in sesame oil solution was also performed. Maximal electroshock (modified as described above) was again used to determine the amount necessary to provide an effective dose (ED50) at various time intervals after dosing.

[7] = test system: Pentylenetetrazol-induced clonic seizures; test: Pentylenetetrazol-induced seizure test (Swinyard's method); assay type: in vivo, mice (female Swiss Webster); conditions: Mus musculus, ip, 0.5 h; i.p., 30 minutes before pentylenetetrazol; absence of clonic seizures
Method: (§4) Diphenylsilanediol was also tested to determine its effectiveness against chemically-induced seizures. Pentylenetetrazol and strychnine were the convulsant compounds used. Pentylenetetrazol testing was performed in accordance with Swinyard's method as described in J. Am. Pharm. Assoc. 38:201, 1949, while styrchnine tests were made by the method of Everett and Richards as described in J. Pharm. Exp. Ther. 81:402, 1944.
(§5) The silane (in 0.5% aqueous methylcellulose) was administered i.p. to groups of 6 mice (female Swiss Webster) at doses of 10, 30, 100 and 300 mg./kg. The silane solution was administered 30 minutes before injection with one of the convulsant drugs. The end point for scoring effectiveness was the absence of clonic seizures during the 30 minute period subsequent to administration of the convulsant -- this same criterion was utilized in conducting the strychnine tests. In both tests, effective amounts (ED50) of the silane were equivalent with the pentylenetetrazol-induced convulsion requiring 58 mg./kg. and the styrchnine tests showing 60 mg./kg. as the ED50.

[8] = test system: strychnine-induced seizures; test: Strychnine-induced seizure test (method of Everett and Richards); assay type: in vivo, mice (female Swiss Webster); conditions: Mus musculus, ip, 0.5 h
Method: as §4, §5

[9] = test system: idiopathic epilepsy, grand mal seizures of the clonic type; test: Control of seizures in a dog with idiopathic epilepsy; assay type: in vivo, dog (German Shepard)
Method: A young adult dog (German Shepard) was diagnosed as having idiopathic epilepsy after having grand mal seizures of the clonic type.
After five days of dosing, the same amount was administered orally in 250 mg. capsules for a period of 10 days.

[10] = after cessation of 10 mg./kg. oral dose twice daily
[11] = after discontinuation of 500 mg. regimen

Structure (SMILES)	ED50 ([1]; 4 hrs. after dosing) [mg/kg]	ED50 ([1]; 6 hrs. after dosing) [mg/kg]	LD50 at 336 h [2] [mg/kg]	ED50 ([1]; 2 hrs. after dosing) [mg/kg]	other results
CCCCO[Si](OCCCC)(c1ccccc1)c1ccccc1 [.phi.2 Si(On-C4 H9)2, diphenyl-di-n-butoxysilane, reference compound]	1000	1000	5300	–	anticonvulsant activity (in words) [1]: no observed activity; Maximal Electroshock ED50 (95% C.I.) ([1]; 2 hrs. after dosing): no protection
O[Si](O)(c1ccccc1)c1ccccc1 [.phi.2 Si(ONa)2]	61	90	–	37	–
CCO[Si](OCC)(c1ccccc1)c1ccccc1 [.phi.2 Si(OC2 H5)2]	50	22	1720	37	–
CN[Si](NC)(c1ccccc1)c1ccccc1	70	153	–	68	–
CCN(CC)CCO[Si](OCCN(CC)CC)(c1ccccc1)c1ccccc1 [.phi.2 Si[OCH2 CH2 N(C2 H5)2]2]	84	168	–	52	–
O[Si](O[Si](O)(c1ccccc1)c1ccccc1)(c1ccccc1)c1ccccc1 [reference compound]	1000	1000	–	1000	anticonvulsant activity (in words) [1]: no anticonvulsant activity
CCCO[Si](OCCC)(c1ccccc1)c1ccccc1 [.phi.2 Si(On-C3 H7)2]	89	32	1000	–	Maximal Electroshock ED50 (95% C.I.) ([1]; 2 hrs. after dosing): no protection
O[Si](O)(c1ccccc1)c1ccccc1 [diphenylsilanediol]	–	–	–	–	half time of the effect ([3]; 25 mg./kg. (ED99)): about four; peak time of the anticonvulsant effect ([3]; 25 mg./kg. (ED99)): 30 min; some measurable anticonvulsant activity noted up to ([3]; 25 mg./kg. (ED99)): up to 10 hours; ED99 ([3]; Mus musculus, ip, 0.5 h): 25 mg/kg; ED50 ([3]; Mus musculus, ip, 0.5 h, 0.5% methylcellulose, electroshock 30 minutes after dosing, read-out: effective dose to prevent convulsions in half the animals (ED50)): 20 mg/kg; LD50 [4]: 2500 mg/kg; peak time [5]: 5 min; ED50 ([5]; Mus musculus, 5 min): 10 mg/kg; ED50 ([6]; 2 hrs. after dosing): 25 mg/kg; ED50 ([6]; 4 hrs. after dosing): 37 mg/kg; ED50 ([6]; 6 hrs. after dosing): 60 mg/kg; ED50 [7]: 58 mg/kg; ED50 [8]: 60 mg/kg; control of seizures ([9]; 500 mg. intramuscularly twice per day): effective in controlling seizures; seizures during 15 day period ([9]; 500 mg. twice per day, 5 days intramuscular then 10 days oral (250 mg. capsules)): did not experience seizures; first seizure postdose [9, 10]: 30 h; interval of seizures after cessation [9, 10]: three; first seizure after the last dose [9, 11]: 39 h; interval of seizures after discontinuation [9, 11]: about four; elimination of seizures ([9]; one-half the previous dosage, 10 mg./kg. orally twice daily, 10 days): effective in eliminating seizures
c1ccc([SiH2]c2ccccc2)cc1 [.phi.2 SiH2]	25	28	924	28	–
CC(C)O[Si](OC(C)C)(c1ccccc1)c1ccccc1 [.phi.2 Si(Oi-C3 H7)2]	99	66	990	–	Maximal Electroshock ED50 (95% C.I.) ([1]; 2 hrs. after dosing): no protection
CN(C)[Si](c1ccccc1)(c1ccccc1)N(C)C [.phi.2 Si[N(CH3)2]2]	50	56	–	50	–
N[Si](N)(c1ccccc1)c1ccccc1 [.phi.2 Si(NH2)2]	68	100	–	56	–
CCO[SiH](c1ccccc1)c1ccccc1	21	46	–	22	–
CO[Si](OC)(c1ccccc1)c1ccccc1 [.phi.2 Si(OCH3)2]	26	52	1060	39	–
CC(=O)O[Si](OC(C)=O)(c1ccccc1)c1ccccc1	11	50	–	43	–
CCCCS[Si](SCCCC)(c1ccccc1)c1ccccc1 [.phi.2 Si(SC4 H9)2]	65	65	–	290	–
